Assay results published in US7053178B2, “Synthetic peptides and kits for diagnosis of anti-phospholipid syndrome” (Yeda Research Development Co., LTD, priority 1998, dated 2006).
Where no end group is shown, it is not given here.

How the values were obtained:
[1] = tested on: sera of mice immunized with β2GPI; experiment: ELISA binding of sera of β2GPI-immunized mice to peptides; set-up: species or system BALB/c mice; conditions: biotinylated peptide monomers on streptavidin plates, anti-mouse IgG
Method: Sera of immunized mice were screened for the presence of mouse antibodies to peptide A, B and C, by ELISA, with streptavidin-coated plates followed by incubation with biotinylated peptide A, B, and C. Blocked plates (3% gelatin) were exposed to different dilutions of the sera. The binding was probed by anti-mouse IgG alkaline phosphatase.
BALB/c mice were immunized (day 0) in the hindfootpads with 10 μg β2GPI in Complete Freund's Adjuvant (CFA), Three weeks after, the mice received a booster injection of β2GPI in PBS. Sera of the mice (anti-β2GPI) were used to screen peptides for the presence of B cell epitopes, as follows: 96-well ELISA plates were coated with streptavidin overnight at 4° C., followed by incubation with biotinylated peptide monomers A, B, C, or D, β2GPI or BSA in PBS (100 μM) for 2 hours at room temperature. The ELISA plates were blocked with 3% gelatin, and the mouse sera were added thereto at different dilutions. Binding was probed with goat anti-mouse IgG alkaline phosphatase.

[2] = tested on: affinity purified anti-β2GPI Abs from APS patients; experiment: Fractionation of affinity purified anti-β2GPI Abs on peptide columns; type: binding, human
anti-β2GPI ILA-1 mAb = experiment: Competition ELISA: inhibition of ILA-1 mAb binding to β2GPI; set-up: species or system human; conditions: 10 μM peptide concentration
Method: FIGS. 1A–1C are graphs showing inhibition of the anti-β2GPI ILA-1, ILA-3 and G-3 mAbs binding to β2GPI by competition assays using increasing concentrations of the inhibitory monomer peptides A, B and C, respectively, and of unrelated peptide D as control. The percent of inhibition was calculated as follows: % inhibition=O.D control−O.D with inhibitor/O.D control×100. Each point represents mean±SD of three different experiments.
(e) Inhibition of anti-β2GPI mAb binding to β2GPI by the inhibitory peptides. For competition ELISA tests, the anti-β2GPI mAbs (10 μg/ml) were preincubated (overnight at 4° C.) with varying concentrations of the peptides. The competition reaction was then transferred to β2GPI-coated γ-irradiated ELISA plates (Nunc), and the assay continued as described above. The percentage of inhibition was calculated as follows: % inhibition=O.D control −O.D with inhibitor/O.D control×100.
(2a) The specificity of interaction of the mAbs with the corresponding synthetic peptides A, B, C and control peptide D as monomers, was assessed by inhibition experiments as described in Materials and Methods, sections (e) and (f).

sera of SLE patients = experiment: ELISA binding of SLE patient sera to biotinylated peptides; set-up: species or system human; conditions: SLE patients (N = 72), sera 1:50
Method: (§1) Binding of sera from patients with primary APS or secondary to SLE to the studied peptides was performed by ELISA. 96-well ELISA plates were coated with streptavidin, blocked with gelatin, incubated with biotinylated peptides (A,B,C,D) and blocked with gelatin. Sera of patients with APS or SLE were added at dilution of 1:50 and the percent of binding was probed with anti-human IgM or IgG conjugated to alkaline phosphatase. Half plate was coated with streptavidin without addition of peptide (for non-specific binding).

sera of APS patients = experiment: ELISA binding of APS patient sera to biotinylated peptides; set-up: species or system human; conditions: APS patients (N = 43), sera 1:50
Method: ELISA streptavidin-coated plates were incubated with biotinylated A, B or C, control peptide D or cocktail of peptides A+B+C. Following blocking with 5% bovine sera, the patient sera were added at dilution of 1:50. The bound antibodies were detected by administration of anti-human IgG or IgM alkaline phosphatase and appropriate substrate.
as §1

sera of normal donors = experiment: ELISA binding of normal donor sera to biotinylated peptides; set-up: species or system human; conditions: Normal donors (N = 100)
Method: as §1

[3] = tested on: affinity purified anti-β2GPI IgM and IgG from APS patients; experiment: Competition ELISA: specificity of binding of patient anti-β2GPI IgM and IgG to peptides; set-up: species or system human; conditions: competition with specific peptide versus cocktail of the other peptides
Method: FIGS. 6A–6C show specificity of binding of affinity purified anti-β2GPI IgM and IgG antibodies from APS patients to the inhibitory monomer peptides A, B and C by ELISA, following preincubation of the tested affinity purified immuno-globulin with or without the peptide or the β2GPI molecule, in fluid phase. FIG. 6A: Affinity purified anti-β2GPI IgM and IgG that recognize peptide A were tested for binding to peptide A following preincubation of the purified antibodies with peptide A, cocktail of peptides B+C+D or β2GPI. Each point represents one patient. FIG. 6B: Affinity purified anti-β2GPI IgM and IgG that recognize peptide B were tested for binding to peptide B following preincubation with peptide B, cocktail of peptides A+C+D or β2GPI. Each point represents one patient. FIG. 6C: Affinity purified anti-β2GPI IgM and IgG that recognize peptide C were tested for binding to peptide C following preincubation with peptide C, cocktail of peptides A+B+D or β2GPI. Each point represents one patient.
The specificity of the recognition of the studied anti-β2GPI epitopes A, B, C by anti-β2GPI Abs from APS patients was confirmed by competition assays in which specificity of binding of anti-β2GPI IgM and IgG from patients with APS to the inhibitory peptides was examined. Anti-β2GPI IgG and IgM affinity purified from APS patients (affinity purification of the antibodies was carried out by incubation of cardiolipin lyposomes with patients' sera overnight at 4° C. with rotation following sedimentation of the complexes (30000 rpm), elution of the bound Abs by KI 1M, extraction from the lyposomes by chloroform, and separation of the total anti-β2GPI IgM, IgG Abs into the different isotypes employing either anti-human-IgM-Sepharose or anti-human-IgG-Sepharose (Pharmacia)) were preincubated with β2GPI (triangles), specific peptide monomer (circles) or a cocktail of the other peptides as monomers (squares), and tested for their binding to the specific biotinylated peptide-coated ELISA plates.

**Q.** Which “reaction with antibodies from mice immunized with β2GPI” value (shortened to “reaction with antibodies”) [1] does the source give for CATLRVYKGG [Peptide C] here?
**A.** reacted specifically

**Q.** And the “Fraction of anti-β2GPI Abs (in percentage) recognizing the peptide” value ([2]; APS patient no. 1)?
**A.** 0.4 percentage

**Q.** And the “Fraction of anti-β2GPI Abs (in percentage) recognizing the peptide” value ([2]; APS patient no. 2)?
**A.** 3 percentage

**Q.** And the “Fraction of anti-β2GPI Abs (in percentage) recognizing the peptide” value ([2]; APS patient no. 3)?
**A.** 39 percentage

**Q.** What about the “Fraction of anti-β2GPI Abs (in percentage) recognizing the peptide” value ([2]; APS patient no. 4) of the same sequence?
**A.** 22 percentage

**Q.** What about the “Fraction of anti-β2GPI Abs (in percentage) recognizing the peptide” value ([2]; APS patient no. 5) of the same sequence?
**A.** 1.8 percentage

**Q.** And the “Fraction of anti-β2GPI Abs (in percentage) recognizing the peptide” value ([2]; APS patient no. 6)?
**A.** 23 percentage

**Q.** And the “Fraction of anti-β2GPI Abs (in percentage) recognizing the peptide” value ([2]; APS patient no. 7)?
**A.** 5 percentage

**Q.** And the “Fraction of anti-β2GPI Abs (in percentage) recognizing the peptide” value ([2]; APS patient no. 8)?
**A.** 4.2 percentage

**Q.** What about the “Fraction of anti-β2GPI Abs (in percentage) recognizing the peptide” value ([2]; APS patient no. 9) of the same sequence?
**A.** 0.5 percentage

**Q.** What about the “Fraction of anti-β2GPI Abs (in percentage) recognizing the peptide” value ([2]; APS patient no. 10) of the same sequence?
**A.** 16.4 percentage

**Q.** And the “inhibition of ILA-1 mAb binding to β2GPI” value (anti-β2GPI ILA-1 mAb)?
**A.** 11%

**Q.** What about the “Percent of sera recognizing the peptide, IgG” value (“Percent … IgG” below) (sera of SLE patients) of the same sequence?
**A.** 2.8%

**Q.** And the “Percent of sera recognizing the peptide, IgM” value (shortened to “Percent … IgM”) (sera of SLE patients)?
**A.** 14%

**Q.** What about the “Percent … IgG” value (sera of APS patients) of the same sequence?
**A.** 16.3%

**Q.** What about the “Percent … IgM” value (sera of APS patients) of the same sequence?
**A.** 27.9%

**Q.** What about the “Percent … IgG” value (sera of normal donors) of the same sequence?
**A.** 1%

**Q.** And the “Percent … IgM” value (sera of normal donors)?
**A.** 0%

**Q.** What about the “specificity of recognition of the peptide by anti-β2GPI IgM and IgG from APS patients” value (“specificity” for short) [3] of the same sequence?
**A.** recognized specifically

**Q.** For KDKATFGTHDG [Peptide B], which “reaction with antibodies” value [1] is on record?
**A.** reacted specifically

**Q.** And the “Fraction of anti-β2GPI Abs (in percentage) recognizing the peptide” value ([2]; APS patient no. 1)?
**A.** 37 percentage

**Q.** What about the “Fraction of anti-β2GPI Abs (in percentage) recognizing the peptide” value ([2]; APS patient no. 2) of the same sequence?
**A.** 15 percentage

**Q.** What about the “Fraction of anti-β2GPI Abs (in percentage) recognizing the peptide” value ([2]; APS patient no. 3) of the same sequence?
**A.** 0.5 percentage

**Q.** And the “Fraction of anti-β2GPI Abs (in percentage) recognizing the peptide” value ([2]; APS patient no. 4)?
**A.** 43 percentage

**Q.** And the “Fraction of anti-β2GPI Abs (in percentage) recognizing the peptide” value ([2]; APS patient no. 5)?
**A.** 29 percentage

**Q.** And the “Fraction of anti-β2GPI Abs (in percentage) recognizing the peptide” value ([2]; APS patient no. 6)?
**A.** 14 percentage

**Q.** And the “Fraction of anti-β2GPI Abs (in percentage) recognizing the peptide” value ([2]; APS patient no. 7)?
**A.** 18 percentage

**Q.** What about the “Fraction of anti-β2GPI Abs (in percentage) recognizing the peptide” value ([2]; APS patient no. 8) of the same sequence?
**A.** 33 percentage

**Q.** And the “Fraction of anti-β2GPI Abs (in percentage) recognizing the peptide” value ([2]; APS patient no. 9)?
**A.** 1.3 percentage

**Q.** What about the “Fraction of anti-β2GPI Abs (in percentage) recognizing the peptide” value ([2]; APS patient no. 10) of the same sequence?
**A.** 7.9 percentage

**Q.** And the “inhibition of ILA-1 mAb binding to β2GPI” value (anti-β2GPI ILA-1 mAb)?
**A.** 10%

**Q.** And the “Percent … IgG” value (sera of SLE patients)?
**A.** 11%

**Q.** And the “Percent … IgM” value (sera of SLE patients)?
**A.** 12.5%

**Q.** And the “Percent … IgG” value (sera of APS patients)?
**A.** 20.9%

**Q.** And the “Percent … IgM” value (sera of APS patients)?
**A.** 25.6%

**Q.** And the “Percent … IgG” value (sera of normal donors)?
**A.** 0%

**Q.** What about the “Percent … IgM” value (sera of normal donors) of the same sequence?
**A.** 1%

**Q.** And the “specificity” value [3]?
**A.** bind specifically

**Q.** For NTLKTPRVGG [Peptide A], which “reaction with antibodies” value [1] is on record?
**A.** reacted specifically

**Q.** And the “Fraction of anti-β2GPI Abs (in percentage) recognizing the peptide” value ([2]; APS patient no. 1)?
**A.** 23 percentage

**Q.** What about the “Fraction of anti-β2GPI Abs (in percentage) recognizing the peptide” value ([2]; APS patient no. 2) of the same sequence?
**A.** 0.7 percentage

**Q.** What about the “Fraction of anti-β2GPI Abs (in percentage) recognizing the peptide” value ([2]; APS patient no. 3) of the same sequence?
**A.** 1.4 percentage

**Q.** What about the “Fraction of anti-β2GPI Abs (in percentage) recognizing the peptide” value ([2]; APS patient no. 4) of the same sequence?
**A.** 29 percentage

**Q.** What about the “Fraction of anti-β2GPI Abs (in percentage) recognizing the peptide” value ([2]; APS patient no. 5) of the same sequence?
**A.** 0.9 percentage

**Q.** What about the “Fraction of anti-β2GPI Abs (in percentage) recognizing the peptide” value ([2]; APS patient no. 6) of the same sequence?
**A.** 29 percentage

**Q.** And the “Fraction of anti-β2GPI Abs (in percentage) recognizing the peptide” value ([2]; APS patient no. 7)?
**A.** 37 percentage

**Q.** And the “Fraction of anti-β2GPI Abs (in percentage) recognizing the peptide” value ([2]; APS patient no. 8)?
**A.** 2.8 percentage

**Q.** What about the “Fraction of anti-β2GPI Abs (in percentage) recognizing the peptide” value ([2]; APS patient no. 9) of the same sequence?
**A.** 12 percentage

**Q.** What about the “Fraction of anti-β2GPI Abs (in percentage) recognizing the peptide” value ([2]; APS patient no. 10) of the same sequence?
**A.** 0.6 percentage

**Q.** What about the “inhibition of ILA-1 mAb binding to β2GPI” value (anti-β2GPI ILA-1 mAb) of the same sequence?
**A.** 97%

**Q.** And the “Percent … IgG” value (sera of SLE patients)?
**A.** 5.5%

**Q.** What about the “Percent … IgM” value (sera of SLE patients) of the same sequence?
**A.** 11%

**Q.** What about the “Percent … IgG” value (sera of APS patients) of the same sequence?
**A.** 7%

**Q.** What about the “Percent … IgM” value (sera of APS patients) of the same sequence?
**A.** 20.9%

**Q.** What about the “Percent … IgM” value (sera of APS patients; listed as peptide A) of the same sequence?
**A.** 21%

**Q.** And the “Percent … IgG” value (sera of normal donors)?
**A.** 0%

**Q.** And the “Percent … IgM” value (sera of normal donors)?
**A.** 2%

**Q.** And the “specificity” value [3]?
**A.** recognized specifically
